{
  "source": "patent US12643935B2",
  "about": "“PD-L1 binding peptides” (UNIVERSITY OF SOUTHERN CALIFORNIA, priority 2020, dated 2026)",
  "key": {"[1]": {"target": "T1, mouse PD-L1 (mPD-L1) (Mus musculus, UniProt Q9EP73)", "T1 construct": "The expression construct for mPD-L1 consisted of its extracellular domain (from A18 to H239) with a methionine added to the N-terminus; hexahistidine tag (C); made in house; host or cells: E. coli BL21 (DE3)", "T1 sequence (Q9EP73 with tags, fused parts or gaps)": "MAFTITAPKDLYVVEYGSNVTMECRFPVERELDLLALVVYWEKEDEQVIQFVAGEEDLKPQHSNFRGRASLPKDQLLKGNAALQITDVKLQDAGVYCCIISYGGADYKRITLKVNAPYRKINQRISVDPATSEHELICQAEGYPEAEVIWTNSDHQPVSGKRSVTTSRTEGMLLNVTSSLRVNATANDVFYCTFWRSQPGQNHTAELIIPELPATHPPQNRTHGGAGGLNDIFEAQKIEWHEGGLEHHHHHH", "experiment": "Radiolabeled [35S] peptide binding assay on mPD-L1", "details": "[35S]-labeled peptide", "protocol": "(§1) SPAM Peptide Selectively Binds to hPD-L1. SPAM was also tested for binding specificity towards mouse PD-L1 (mPD-L1) and human PD-L2 (hPD-L2) using radioactive binding assays. SPAM peptide mRNA was translated in vitro in the presence of [^35S]-methionine to generate [^35S]-labeled SPAM peptide.\n(§2) [^35S]-labeled peptides were translated as described above by including 2 μCi labeled methionine (Perkin Elmer) per 10 pmol of template in the translation reaction. Each peptide was tested with a […] (for X9-library derived peptides) (SEQ ID NO: 11) or a […] (for X17-library derived peptides) (SEQ ID NO: 12) C-terminal sequence. […] The supernatant was removed and was counted. The beads were subsequently washed three times with 1 mL of blocking buffer and the washes were also counted. Finally, the beads were resuspended in 1 mL of blocking buffer and were counted separately. The ratio of the counts remaining on the beads to the total counts added to the binding reaction (the sum of the counts for supernatant, washes, and beads) was calculated to determine the percent bound."}, "[2]": {"target": "T2, human PD-L2 (hPD-L2) (Homo sapiens, UniProt Q9BQ51)", "T2 construct": "The hPD-L2* vector included amino acids L20-T220, an Avi Tag and a hexahistidine tag; hexahistidine tag; made in house; host or cells: Expi293F", "T2 sequence (Q9BQ51 20-220)": "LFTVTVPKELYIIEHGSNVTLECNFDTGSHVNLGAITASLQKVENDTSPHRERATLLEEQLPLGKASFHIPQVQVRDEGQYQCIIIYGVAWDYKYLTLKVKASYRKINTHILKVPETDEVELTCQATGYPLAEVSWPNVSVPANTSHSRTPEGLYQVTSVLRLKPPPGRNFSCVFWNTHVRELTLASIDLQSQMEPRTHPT", "experiment": "Radiolabeled [35S] peptide binding assay on hPD-L2*", "details": "[35S]-labeled peptide", "protocol": "as §1, §2"}, "[3]": {"experiment": "Serum stability of ROX-SPAM by HPLC", "type": "in vitro ADME", "details": "25% human serum, 37° C., up to five hours", "quoted_text": "We first tested SPAM peptide stability by performing an HPLC-based assay to test if SPAM is degraded by human serum. We incubated ROX-labeled SPAM with 25% human serum at 37° C., took aliquots at different time points, then analyzed the products using HPLC.\nAt times 0, 15, 30, 120 and 300 min, 40 μL was removed and protein precipitated by the addition of 80 μL ethanol. Samples were centrifuged for 10 min at 16,000×g and the supernatant removed for HPLC analysis. A total of 100 μL volume was injected in a HPLC gradient of 10^−95% Buffer B over 15 minutes (Buffer A: dH2O with 0.1% (v/v) TFA, Buffer B: CH3CN+0.1% (v/v) TFA). Detection was performed at 570 nm."}, "[4]": {"target": "T3, hPD-L1 expressed on the surface of Chinese hamster ovary (CHO) cells (CHO-hPD-L1) (Homo sapiens, UniProt Q9NZQ7)", "T3 construct": "expressed in transfected cells; host or cells: CHO", "T3 sequence (Q9NZQ7 19-290)": "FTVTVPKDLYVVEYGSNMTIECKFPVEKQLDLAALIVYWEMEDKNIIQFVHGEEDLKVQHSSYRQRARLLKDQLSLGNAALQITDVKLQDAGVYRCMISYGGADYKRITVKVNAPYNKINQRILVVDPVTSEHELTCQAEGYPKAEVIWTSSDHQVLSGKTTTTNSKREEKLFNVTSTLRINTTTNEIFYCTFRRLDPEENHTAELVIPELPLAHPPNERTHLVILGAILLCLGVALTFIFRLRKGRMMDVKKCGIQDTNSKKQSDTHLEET", "experiment": "Antibody competition by flow cytometry on CHO-hPD-L1 cells", "type": "cell-based", "description": "To do this, we measured SPAM peptide inhibition of anti-PD-L1 antibody binding to hPD-L1 expressed on the surface of Chinese hamster ovary (CHO) cells (CHO-hPD-L1). […] Cells were washed again and analyzed by flow cytometry (FIG. 5B-C).\nCells were then washed three times with cold serum free DMEM. Cells were subsequently processed by flow cytometry with a BD FACSCalibur system using the FL1 channel. FlowJo v10.1 was used to gate to the major population and median FL1 fluorescence reported."}, "[5]": {"target": "T4, hPD-L1 (Homo sapiens, UniProt Q9NZQ7)", "experiment": "Radiolabeled [35S] peptide binding assay on immobilized hPD-L1", "design": "designed from A18 to T239 with a methionine added to the N-terminus; hexahistidine tag (C); made in house", "details": "hPD-L1 on streptavidin agarose", "protocol": "as §2"}, "[6]": {"target": "T4, hPD-L1", "experiment": "Radiolabeled [35S] peptide binding assay on glycosylated hPD-L1*", "design": "The hPD-L1* vector included amino acids A18-T239, an Avi Tag and a hexahistidine tag; hexahistidine tag; made in house; host or cells: Expi293F", "protocol": "as §1, §2"}},
  "note": "“Also recorded” adds a separate entry of the source.",
  "data": [
    {"smiles": "C#CC[C@H](NC(=O)CNC(=O)[C@H](CO)NC(=O)[C@H](C)NC(=O)[C@H](Cc1ccc(O)cc1)NC(=O)[C@H](Cc1c[nH]cn1)NC(=O)[C@H](CC(C)C)NC(=O)[C@@H](NC(=O)[C@H](Cc1c[nH]c2ccccc12)NC(=O)[C@H](Cc1ccccc1)NC(=O)[C@H](CCCCN)NC(=O)[C@H](CC(N)=O)NC(=O)[C@H](CC(C)C)NC(=O)[C@@H](NC(=O)[C@H](Cc1c[nH]cn1)NC(=O)[C@H](CC(=O)O)NC(=O)[C@H](CC(C)C)NC(=O)[C@H](Cc1ccccc1)NC(=O)[C@@H](NC(=O)[C@@H]1CCCN1C(=O)[C@@H](N)CCSC)[C@@H](C)CC)[C@@H](C)CC)[C@@H](C)CC)C(N)=O", "note": "(stereo in doubt) [SPAM]", "values": [
      {"measurement": "binding to mPD-L1", "setting": "[1]", "result": "not pulled-down; also recorded: essentially no binding; also recorded: no significant binding"},
      {"measurement": "binding to hPD-L2", "setting": "[2]", "result": "no significant binding; also recorded: essentially no binding"},
      {"measurement": "degradation in human serum (HPLC)", "setting": "[3]", "result": "stable"},
      {"measurement": "Fluorescein-Atezolizumab and Fluorescein-Avelumab binding to CHO-hPD-L1 after pre-incubation", "setting": "[4]; pre-incubation 30 min 4° C., 0-20 μM, SPAM effect at 20 μM, 1 nM Atezolizumab, 10 nM Avelumab", "result": "significant decrease"},
      {"measurement": "blocking of Fluorescein-16373 and Fluorescein-16377 in CHO-hPD-L1 cells", "setting": "[4]; pre-treatment 0-20 μM, 50 nM antibody", "result": "blocking"},
      {"measurement": "[35S]-labeled peptide pull-down by immobilized hPD-L1", "setting": "[5]", "result": "efficiently pulled-down"},
      {"measurement": "[35S]-labeled peptide capture by hPD-L1*", "setting": "[6]", "result": "captured"}
    ]}
  ]
}
